# Data as given in the supplement of paper PMC10307832.
# What was measured:
# Experiment in all cases: relative viability (nuclei count vs DMSO), 5 days (fraction); higher = more cells survive
# [1] = compound: CN(C/C=C/C1=CC=C(C=C1)Cl)CC2=CC=CC=C2N(CCO)S(=O)(=O)C3=CC=C(C=C3)OC [KN-93] + Cc1nc(Nc2ncc(C(=O)Nc3c(C)cccc3Cl)s2)cc(N2CCN(CCO)CC2)n1 [Dasatinib] (partner 0.075 µM)
# In short: (§1)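 Relative viability was taken as the ratio of nuclei in treated wells to nuclei in vehicle wells. Lung cancer cell lines in 1536-well plates received compounds by pin tool one day after seeding, either one drug alone or a fixed anchor-drug dose plus five library-drug doses (not always all listed) in √10 steps. Nuclei were counted on 4× images after 5 days of treatment, and values are medians of duplicate plates.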
# [2] = compound: CN(C/C=C/C1=CC=C(C=C1)Cl)CC2=CC=CC=C2N(CCO)S(=O)(=O)C3=CC=C(C=C3)OC [KN-93] + NC(=O)Nc1cc(-c2cccc(F)c2)sc1C(=O)N[C@H]1CCCNC1 [AZD7762] (partner 0.2 µM)
# In short: as §1
# [3] = compound: CN(C/C=C/C1=CC=C(C=C1)Cl)CC2=CC=CC=C2N(CCO)S(=O)(=O)C3=CC=C(C=C3)OC [KN-93] + Cc1cc(Nc2cc(N3CCN(C)CC3)nc(Sc3ccc(NC(=O)C4CC4)cc3)n2)n[nH]1 [Tozasertib] (partner 0.1 µM)
# In short: as §1
# [4] = compound: CN(C/C=C/C1=CC=C(C=C1)Cl)CC2=CC=CC=C2N(CCO)S(=O)(=O)C3=CC=C(C=C3)OC [KN-93] + N=C(N)NC(=N)NCCc1ccccc1 [Phenformin] (partner 250 µM)
# In short: as §1
# [5] = compound: CN(C/C=C/C1=CC=C(C=C1)Cl)CC2=CC=CC=C2N(CCO)S(=O)(=O)C3=CC=C(C=C3)OC [KN-93] + Nc1nc2[nH]cc(CCc3ccc(C(=O)N[C@@H](CCC(=O)O)C(=O)O)cc3)c2c(=O)[nH]1 [Pemetrexed] (partner 0.2 µM)
# In short: as §1
# [6] = compound: CN(C/C=C/C1=CC=C(C=C1)Cl)CC2=CC=CC=C2N(CCO)S(=O)(=O)C3=CC=C(C=C3)OC [KN-93] + COc1cccc2cc(-c3nc([C@H]4CC[C@H](C(=O)O)CC4)n4ncnc(N)c34)[nH]c12 [OSI-027] (partner 0.5 µM)
# In short: as §1
# [7] = compound: CN(C/C=C/C1=CC=C(C=C1)Cl)CC2=CC=CC=C2N(CCO)S(=O)(=O)C3=CC=C(C=C3)OC [KN-93] + CC(=O)c1c(C)c2cnc(Nc3ccc(N4CCNCC4)cn3)nc2n(C2CCCC2)c1=O [Palbociclib] (partner 0.5 µM)
# In short: as §1
# [8] = compound: CN(C/C=C/C1=CC=C(C=C1)Cl)CC2=CC=CC=C2N(CCO)S(=O)(=O)C3=CC=C(C=C3)OC [KN-93] + CC(=O)Nc1cccc(-n2c(=O)n(C3CC3)c(=O)c3c(Nc4ccc(I)cc4F)n(C)c(=O)c(C)c32)c1 [Trametinib] (partner 0.02 µM)
# In short: as §1
# [9] = compound: CN(C/C=C/C1=CC=C(C=C1)Cl)CC2=CC=CC=C2N(CCO)S(=O)(=O)C3=CC=C(C=C3)OC [KN-93] + CCNC(=O)c1noc(-c2cc(C(C)C)c(O)cc2O)c1-c1ccc(CN2CCOCC2)cc1 [Luminespib] (partner 0.01 µM)
# In short: as §1
# [10] = compound: CN(C/C=C/C1=CC=C(C=C1)Cl)CC2=CC=CC=C2N(CCO)S(=O)(=O)C3=CC=C(C=C3)OC [KN-93] + O=C(c1cc(Cc2n[nH]c(=O)c3ccccc23)ccc1F)N1CCN(C(=O)C2CC2)CC1 [Olaparib] (partner 8 µM)
# In short: as §1
# [11] = compound: CN(C/C=C/C1=CC=C(C=C1)Cl)CC2=CC=CC=C2N(CCO)S(=O)(=O)C3=CC=C(C=C3)OC [KN-93] + Nc1ncn([C@H]2C[C@H](O)[C@@H](CO)O2)c(=O)n1 [Decitabine] (partner 2 µM)
# In short: as §1
# [12] = compound: CN(C/C=C/C1=CC=C(C=C1)Cl)CC2=CC=CC=C2N(CCO)S(=O)(=O)C3=CC=C(C=C3)OC [KN-93] + O=C(CCCCCCC(=O)Nc1ccccc1)NO [Vorinostat] (partner 1 µM)
# In short: as §1
# [13] = compound: CN(C/C=C/C1=CC=C(C=C1)Cl)CC2=CC=CC=C2N(CCO)S(=O)(=O)C3=CC=C(C=C3)OC [KN-93]
# In short: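 For viability, nuclei in each treated well were divided by nuclei in vehicle wells and the median across plates was taken. Lung cancer cell lines in 1536-well plates were pinned with five library-drug doses (not always all listed) spaced by √10, cultured 5 days without medium change, and imaged at 4× after Hoechst staining, with plates passing only at control CV below 25% and at least one doubling.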
cell line,measurement,setting,value
NCI-H522,relative viability,[1]; first compound 0.08 µM,0.825
same,relative viability,[1]; first compound 0.253 µM,0.949
same,relative viability,[1]; first compound 2.53 µM,0.846
same,relative viability,[1]; first compound 8 µM,0.695
same,relative viability,[2]; first compound 0.08 µM,0.831
same,relative viability,[2]; first compound 0.253 µM,0.811
same,relative viability,[2]; first compound 2.53 µM,0.876
same,relative viability,[2]; first compound 8 µM,0.77
same,relative viability,[3]; first compound 0.08 µM,0.551
same,relative viability,[3]; first compound 0.253 µM,0.536
same,relative viability,[3]; first compound 2.53 µM,0.566
same,relative viability,[3]; first compound 8 µM,0.511
same,relative viability,[4]; first compound 0.08 µM,0.666
same,relative viability,[4]; first compound 0.253 µM,0.704
same,relative viability,[4]; first compound 2.53 µM,0.741
same,relative viability,[4]; first compound 8 µM,0.636
same,relative viability,[5]; first compound 0.08 µM,1.02
same,relative viability,[5]; first compound 0.253 µM,0.987
same,relative viability,[5]; first compound 2.53 µM,1.29
same,relative viability,[5]; first compound 8 µM,0.779
same,relative viability,[6]; first compound 0.08 µM,0.824
same,relative viability,[6]; first compound 0.253 µM,0.746
same,relative viability,[6]; first compound 2.53 µM,0.801
same,relative viability,[6]; first compound 8 µM,0.558
same,relative viability,[7]; first compound 0.08 µM,1.1
same,relative viability,[7]; first compound 0.253 µM,1.31
same,relative viability,[7]; first compound 2.53 µM,1
same,relative viability,[7]; first compound 8 µM,0.81
same,relative viability,[8]; first compound 0.08 µM,0.997
same,relative viability,[8]; first compound 0.253 µM,0.855
same,relative viability,[8]; first compound 2.53 µM,0.794
same,relative viability,[8]; first compound 8 µM,0.595
same,relative viability,[9]; first compound 0.08 µM,1.28
same,relative viability,[9]; first compound 0.253 µM,1.4
same,relative viability,[9]; first compound 2.53 µM,1.39
same,relative viability,[9]; first compound 8 µM,1.11
same,relative viability,[10]; first compound 0.08 µM,0.61
same,relative viability,[10]; first compound 0.253 µM,0.607
same,relative viability,[10]; first compound 2.53 µM,0.576
same,relative viability,[10]; first compound 8 µM,0.649
same,relative viability,[11]; first compound 0.08 µM,0.699
same,relative viability,[11]; first compound 0.253 µM,0.625
same,relative viability,[11]; first compound 2.53 µM,0.7
same,relative viability,[11]; first compound 8 µM,0.707
same,relative viability,[12]; first compound 0.08 µM,0.886
same,relative viability,[12]; first compound 0.253 µM,0.966
same,relative viability,[12]; first compound 2.53 µM,0.857
same,relative viability,[12]; first compound 8 µM,0.858
same,relative viability,[13]; 0.08 µM,1.04
same,relative viability,[13]; 0.253 µM,0.986
same,relative viability,[13]; 2.53 µM,1.04
same,relative viability,[13]; 8 µM,0.783
